The values below come from patent publication US20250032569A1, “COMPOSITION, IN PARTICULAR COSMETIC FORMULATION, COMPRISING A VERBASCOSIDE EXTRACT” (MEDENA AG, priority 2021, published 2025).

What all share (assay type): physicochemical
Series [1] can be described thus: In vitro spectrophotometric SPF calculated by the Sayre equation (Eq. 1). On the procedure: Each sample (1 ml) was placed in a 1 cm quartz cell. The absorbance was measured between 250-600 nm at an interval of every 1 nm using a Varian UV/Vis spectrophotometer (Cary 50 Scan). The following parameters were measured and calculated for each sample assuming standard application to the skin—2 mg/cm^2: • the SPF values. • the critical wavelength λC • the UVA/UVB ratio 1. […]
Each sample (1 ml) was placed in a 1 cm quartz cell. The absorbance was measured between 250-600 nm at an interval of every 1 nm using a Varian UV/Vis spectrophotometer (Cary 50 Scan). The following parameters were measured and calculated for each sample assuming standard application to the skin—2 mg/cm^2: • the SPF values. • the critical wavelength λC • the UVA/UVB ratio
The SPF values in vitro were calculated according to the method described by Sayre et al., (Sayre, R M; Agin, P P; LeVee, G J; Marlowe, E. A comparison of in vivo and in vitro testing of sunscreening formulas, Photochem. Photobiol. 1979, 29, 559-566). The calculation was done using Equation 1: […]
where Ss(λ) is the spectral irradiance, Ser(λ) is the CIE erythema action spectrum and T(λ) is the transmission of the sunscreen. The values of Ss(λ) and Ser(λ) were taken from the literature (B. L. Diffey, J. Robson. A new substrate to measure sunscreen protection factors throughout the ultraviolet spectrum, J. Soc. Cosmet. Chem. 1989, 40, 127-133). […]
SPF values were calculated using Eq. 1 for sun protective cosmetics applied at 2 mg/cm^2 (standard application).
The same methods and equations as in the case of plant extracts were applied.
Solutions of sunscreens at concentrations 0.001% were prepared in duplicate and UV-visible absorption spectra were recorded over the range of 250-600 nm (FIG. 1). On the basis of these spectra, the transmission of the sunscreen (T) was found from monochromatic absorbance values at wavelength λ: T=10^−A(λ).
The SPF in vitro was calculated according to the method described by Sayre et al., (Sayre, R M; Agin, P P; LeVee, G J; Marlowe, E. A comparison of in vivo and in vitro testing of sunscreening formulas, Photochem. Photobiol. 1979, 29, 559-566) following equation 1: […]
where Ss(λ) is the spectral irradiance, Ser(λ) the CIE erythema action spectrum and T(λ) the trans-mission of the sunscreen. Data for Ss(λ) and Ser(λ) are available in the literature (B. L. Diffey, J. Robson. A new substrate to measure sunscreen protection factors throughout the ultraviolet spectrum, J. Soc. Cosmet. Chem. 1989, 40, 127-133).
The SPF values were calculated using Eq 1 with the application conditions 2 mg/cm^2 (Standard application recommended by the European Agency).
The SPF value for lotions were calculated using Eq. 1 for three application conditions at 2 mg/cm^2 (standard application), 2.5 mg/cm^2 and 3 mg/cm^2. In the same Table 22, critical wavelength and the UVA/UVB ratios are shown.

Series [2] can be described thus: SPF calculated by modified Sayre method. From the text:
In the following Table 20, there are SPF values obtained in vitro spectrophotometrically, which have been calculated by a classical Sayre method (Sayre, R M; Agin, P P; LeVee, G J; Marlowe, E. A comparison of in vivo and in vitro testing of sunscreening formulas, Photochem. Photobiol. 1979, 29, 559-566) and modified Sayre method, which gives results similar to those obtained in the in vivo tests recommended by COLIPA.
• (1) For water insoluble chemical filters, the modified Sayre method gives results close to those calculated by Simulator-Calculator (BASF) and the in vivo tests. The Simulator-Calculator uses the modified Sayre method assuming an exponentiation equal to 0.827 (X^0.827). • (2) For water soluble natural filters, the same modified Sayre method would give results close to those obtained by the in vivo tests (predicted by Simulator-Calculator). Examples of Cosmetic Compositions with Fully Natural Sun Protective Factors • 1. Sun protective lotion SPF 50+, high UV-A protection • 2. Sun protective cream SPF 50+, high UV-A protection • 3. Sun protective serum for pregnant and milking women SPF 50+, high UV-A protection • 4. Sun protective milk for babies SPF 50+, high UV-A protection • 5. Sun protective lotion SPF 20-30, high UV-A protection for people with highly sensitive skin E. Analysis of Sun Protective Parameters of Two Lotions and Cream Containing Lippia citriodora Extract with 40% of Verbascoside.

The nature of series [3]: Critical wavelength (λC) from absorption spectra (Eq. 2). Conditions: for critical wavelength: chemical sunscreen, no concentration stated. On the procedure: The Critical Wavelength λC is the wavelength, where the area under the absorbance spectrum for the irradiated product from 290 nm to λC is equal to 90% of the integral value of the absorbance spectrum from 290 to 400 nm and was calculated using Eq. 2:
where A (λ)=monochromatic absorbance values at wavelength λ. The critical wavelength was determined for all samples in order to assess a degree of UVA protection. In cases where the critical wavelength is lower than 370 nm, the protection from UVA is less evident.
The Critical Wavelength λC value for the test product was defined as that wavelength where the area under the absorbance spectrum of the sample from 290 nm to λC is 90% of the integral of the absorbance spectrum from 290 to 400 nm and is calculated using Eq. 2:
[formula] • A(λ)=monochromatic absorbance values at wavelength λ

Series [4] in a line: UVA/UVB ratio from absorption spectra (Eq. 3) and Boots UVA Star Rating. On the procedure:
Critical Wavelength (λC) and the UVA/UVB ratios were also calculated from the absorption spectra and were collected in Table 2. […] According to these International indications, aqueous solutions of Haberlea rhodopensis with different concentrations of myconoside can be attributed to the group of good protection (2 UVA Star Rating).
In order to further characterize solutions as skin photo-protectors from UVA, the UVA/UVB ratio was calculated using Eq. 3: […]
In order to characterize the ability of creams to protect skin against UVA the UVA/UVB ratio was calculated using Eq. 3: […]

[5] abbreviates: UV filter 0.5% in sun protective cosmetic (Table 20).
The mark [6] stands for this setting: UV filter 1.0% in sun protective cosmetic (Table 20).
The mark [7] stands for this setting: UV filter 2.5% in sun protective cosmetic (Table 20).
The mark [8] stands for this setting: UV filter 5% in sun protective cosmetic (Table 20).
[9] abbreviates: chemical UV filter 0.5% in sun protective solution (Tables 12-19).
The mark [10] stands for this setting: chemical UV filter 1% in sun protective solution (Tables 12-19).
Where [11] appears, read: chemical UV filter 2.5% in sun protective solution (Tables 12-19).
[12] abbreviates: chemical UV filter 5% in sun protective solution (Tables 12-19).
[13] abbreviates: chemical UV filter 10% in sun protective solution (Tables 12-19).
[14] abbreviates: chemical UV filter 0.5% in sun protective solution.
[15] abbreviates: chemical UV filter 1% in sun protective solution.
Setting [16] is: chemical UV filter 2.5% in sun protective solution.
[17] abbreviates: chemical UV filter 5% in sun protective solution.
The mark [18] stands for this setting: chemical UV filter 10% in sun protective solution.
Setting [19] is: UV filter 0.5% in sun protective cosmetic.
The mark [20] stands for this setting: UV filter 1.0% in sun protective cosmetic.
[21] abbreviates: UV filter 2.5% in sun protective cosmetic.
Setting [22] is: UV filter 5% in sun protective cosmetic.

Structures are written as SMILES.

In the case of `C[C@@H]1O[C@@H](O[C@@H]2[C@@H](O)[C@H](OCCc3ccc(O)c(O)c3)O[C@H](CO)[C@H]2OC(=O)/C=C/c2ccc(O)c(O)c2)[C@H](O)[C@H](O)[C@H]1O` [Verbascoside, β-(3′,4′-dihydroxyphenyl)ethyl-O-α-L-rhamnopyranosyl (1->3)-β-D-(4-O-caffeoyl)-glucopyranoside], the “SPF values calculated by the Sayre equation” value was 3.9 in series [1] (verbascoside or its analogues from plant extracts 1.0% in sun protective cosmetic (Table 20)), 23 in series [1] (verbascoside or its analogues from plant extracts 2.5% in sun protective cosmetic (Table 20)), 110 in series [1] (verbascoside or its analogues from plant extracts 5% in sun protective cosmetic (Table 20)) and 2.0 in series [1] (verbascoside or its analogues from plant/plant cell culture extracts 0.5% in sun protective cosmetic (Table 20)). For the same compound, the “SPF values calculated by Modified Sayre” value is on record as 2.2 in series [2] (verbascoside or its analogues from plant extracts 0.5% in sun protective cosmetic, SPF = a*X^0.827); 3.9 in series [2] (verbascoside or its analogues from plant extracts 1.0% in sun protective cosmetic); 8.3 in series [2] (verbascoside or its analogues from plant extracts 2.5% in sun protective cosmetic); 14.8 in series [2] (verbascoside or its analogues from plant extracts 5% in sun protective cosmetic); 22 in series [2] (verbascoside or its analogues from plant extracts 8% in sun protective cosmetic); 26 in series [2] (verbascoside or its analogues from plant extracts 10% in sun protective cosmetic). Also, the “SPF values calculated by Modified Sayre” value in series [2] (verbascoside or its analogues from plant extracts 12% in sun protective cosmetic) was 31; in series [2] (verbascoside or its analogues from plant extracts 20% in sun protective cosmetic) it was 52.

With `CCCCC(CC)COC(=O)c1ccc(Nc2nc(Nc3ccc(C(=O)NC(C)(C)C)cc3)nc(Nc3ccc(C(=O)OCC(CC)CCCC)cc3)n2)cc1` (stereo not drawn) [diethylhexyl butamido triazone, Diethylhexyl butamido triazone], the “SPF values calculated by the Sayre equation” value is on record as 3.2 in series [1] (setting [5]); 9.0 in series [1] (setting [6]); 39 in series [1] (setting [7]); 98 in series [1] (setting [8]); 394 in series [1] (UV filter 10% in sun protective cosmetic (Table 20)). Moreover, the SPF values in series [1] (setting [9]) is 4.1; in series [1] (setting [10]) it was 10; in series [1] (setting [11]) it was 23; in series [1] (setting [12]), 44; in series [1] (setting [13]), 131; in series [1] (chemical UV filter 10% in sun protective solution (Tables 12-19), listed as ethylhexyl butamido triazone), 137. Moreover, the “Critical wavelength (λC)” value in series [3] (setting [14]), in series [3] (setting [15]), in series [3] (setting [16]), in series [3] (setting [17]) and in series [3] (setting [18]) was 337 nm throughout. In series [3], this compound gave a critical wavelength of 337 nm. Also, the “SPF values calculated by Modified Sayre” value in series [2] (setting [19]) was 3.2; in series [2] (setting [20]), 4.6; in series [2] (setting [21]), 7.4; in series [2] (setting [22]) it was 10.6; in series [2] (UV filter 10% in sun protective cosmetic), 15.3.

With `CCCCC(CC)COC(=O)c1ccc(Nc2nc(Nc3ccc(C(=O)OCC(CC)CCCC)cc3)nc(Nc3ccc(C(=O)OCC(CC)CCCC)cc3)n2)cc1` (stereo not drawn) [ethylhexyl triazone, Ethylhexyl triazone], the UVA/UVB in series [4] (setting [14]), in series [4] (setting [15]), in series [4] (setting [16]), in series [4] (setting [17]) and in series [4] (setting [18]) was 0.21 each time. In series [4] (chemical sunscreen, no concentration stated), the “ratio UVA/UVB” value worked out at 0.21. In addition, the “SPF values calculated by the Sayre equation” value in series [1] (setting [5]) is on record as 2.8; in series [1] (setting [6]) it was 8; in series [1] (setting [7]) it was 69; in series [1] (setting [8]) it was 389. In addition, the SPF values in series [1] (setting [9]) is on record as 5.2; in series [1] (setting [10]), 14; in series [1] (setting [11]), 33; in series [1] (chemical UV filter 2.5% in sun protective solution (Tables 12-19), listed as ethyl hexyl triazone) it was 44; in series [1] (setting [12]), 74; in series [1] (setting [13]) it was 271. For the same compound, the “Critical wavelength (λC)” value in series [3] (setting [14]), in series [3] (setting [15]), in series [3] (setting [16]), in series [3] (setting [17]) and in series [3] (setting [18]) was 341 nm throughout. Moreover, the critical wavelength in series [3] was 341 nm. Moreover, the “SPF values calculated by Modified Sayre” value is on record as 2.8 in series [2] (setting [19]), 4.1 in series [2] (setting [20]), 6.8 in series [2] (setting [21]) and 10.1 in series [2] (setting [22]).
